Values joined by “and” are separate entries in the source; they are usually repeats but may differ in a detail not shown here. Equal entries are not always repeated. ± gives the expanded uncertainty stated by the source.
Assay: xn = mol fraction of the nth substance listed
Details: Constant-volume piezometry

CCCCC [pentane] + CCCO
Details	mass density
473.15 K, 3570 kPa, Gas, x1 = 0.9	221.23 ± 3.4 kg/m3
473.15 K, 3581 kPa, Fluid (supercritical or subcritical phases), x1 = 0.9	202.87 ± 2.5 kg/m3
473.15 K, 3589 kPa, Fluid (supercritical or subcritical phases), x1 = 0.9	221.23 ± 2.3 kg/m3
473.15 K, 3592 kPa, Gas, x1 = 0.8	140.64 ± 0.48 kg/m3
473.15 K, 3596 kPa, Fluid (supercritical or subcritical phases), x1 = 0.9	233.64 ± 2.3 kg/m3 and 237.11 ± 2.2 kg/m3
473.15 K, 3598 kPa, Fluid (supercritical or subcritical phases), x1 = 0.9	241.52 ± 2.2 kg/m3
473.15 K, 3600 kPa, Fluid (supercritical or subcritical phases), x1 = 0.9	244.84 ± 2.1 kg/m3
473.15 K, 3614 kPa, Fluid (supercritical or subcritical phases), x1 = 0.9	282.71 ± 1.5 kg/m3
473.15 K, 3634 kPa, Fluid (supercritical or subcritical phases), x1 = 0.9	302.44 ± 4.3 kg/m3
473.15 K, 3679 kPa, Fluid (supercritical or subcritical phases), x1 = 0.9	313.12 ± 1.8 kg/m3
473.15 K, 3689 kPa, Fluid (supercritical or subcritical phases), x1 = 0.8	316.17 ± 1.6 kg/m3
473.15 K, 3767 kPa, Liquid, x1 = 0.8	311.76 ± 0.65 kg/m3
473.15 K, 3769 kPa, Liquid, x1 = 0.8	312.18 ± 0.65 kg/m3
473.15 K, 3862 kPa, Liquid, x1 = 0.8	334.71 ± 0.8 kg/m3
473.15 K, 3867 kPa, Fluid (supercritical or subcritical phases), x1 = 0.9	334.89 ± 1.7 kg/m3
473.15 K, 4019 kPa, Liquid, x1 = 0.8	346.27 ± 0.73 kg/m3
473.15 K, 4251 kPa, Fluid (supercritical or subcritical phases), x1 = 0.9	355.05 ± 1.8 kg/m3
473.15 K, 4349 kPa, Liquid, x1 = 0.5	442.18 ± 0.9 kg/m3
473.15 K, 4439 kPa, Liquid, x1 = 0.8	362.89 ± 0.74 kg/m3
473.15 K, 5156 kPa, Liquid, x1 = 0.5	452.53 ± 0.92 kg/m3
473.15 K, 5785 kPa, Liquid, x1 = 0.5	459.62 ± 0.93 kg/m3
473.15 K, 6747 kPa, Fluid (supercritical or subcritical phases), x1 = 0.9	408.4 ± 2 kg/m3
473.15 K, 6942 kPa, Liquid, x1 = 0.5	469.49 ± 0.95 kg/m3
473.15 K, 7120 kPa, Liquid, x1 = 0.8	419.36 ± 0.85 kg/m3
473.15 K, 7219 kPa, Liquid, x1 = 0.2	548.71 ± 1.1 kg/m3
473.15 K, 13549 kPa, Liquid, x1 = 0.5	508.06 ± 1 kg/m3
473.15 K, 13806 kPa, Liquid, x1 = 0.8	468.05 ± 0.95 kg/m3
473.15 K, 16233 kPa, Liquid, x1 = 0.5	520.92 ± 1.1 kg/m3
473.15 K, 16852 kPa, Liquid, x1 = 0.2	583.19 ± 1.2 kg/m3
473.15 K, 20923 kPa, Liquid, x1 = 0.8	497.59 ± 1 kg/m3
473.15 K, 22686 kPa, Liquid, x1 = 0.2	596.85 ± 1.2 kg/m3
473.15 K, 24900 kPa, Liquid, x1 = 0.5	549.88 ± 1.1 kg/m3
473.15 K, 30448 kPa, Liquid, x1 = 0.8	522.21 ± 1.1 kg/m3
473.15 K, 32094 kPa, Liquid, x1 = 0.2	616.32 ± 1.3 kg/m3
473.15 K, 38268 kPa, Liquid, x1 = 0.5	576.1 ± 1.2 kg/m3
474.15 K, 3452 kPa, Liquid, x1 = 0.5	418.33 ± 0.85 kg/m3
474.15 K, 3457 kPa, Liquid, x1 = 0.5	418.33 ± 0.85 kg/m3
474.15 K, 3855 kPa, Liquid, x1 = 0.8	311.75 ± 0.71 kg/m3
474.15 K, 3858 kPa, Liquid, x1 = 0.8	312.16 ± 0.71 kg/m3
475.15 K, 3641 kPa, Liquid, x1 = 0.5	418.31 ± 0.85 kg/m3
475.15 K, 3789 kPa, Fluid (supercritical or subcritical phases), x1 = 0.9	302.41 ± 1.5 kg/m3
475.15 K, 3944 kPa, Liquid, x1 = 0.8	312.15 ± 0.66 kg/m3
477.15 K, 3017 kPa, Liquid, x1 = 0.2	510.96 ± 1 kg/m3
478.15 K, 3181 kPa, Gas, x1 = 0.5	89.1 ± 0.28 kg/m3
478.15 K, 3700 kPa, Liquid, x1 = 0.5	399.08 ± 0.81 kg/m3
478.15 K, 3850 kPa, Fluid (supercritical or subcritical phases), x1 = 0.8	214.32 ± 1.7 kg/m3
478.15 K, 3857 kPa, Fluid (supercritical or subcritical phases), x1 = 0.8	220.1 ± 1.7 kg/m3
478.15 K, 3944 kPa, Fluid (supercritical or subcritical phases), x1 = 0.8	273.15 ± 1.9 kg/m3
480.15 K, 3218 kPa, Gas, x1 = 0.5	89.09 ± 0.28 kg/m3
480.15 K, 3965 kPa, Fluid (supercritical or subcritical phases), x1 = 0.8	220.08 ± 1.2 kg/m3
480.15 K, 4198 kPa, Fluid (supercritical or subcritical phases), x1 = 0.9	302.34 ± 1.5 kg/m3
482.15 K, 3886 kPa, Liquid, x1 = 0.5	384.8 ± 0.78 kg/m3
483.15 K, 867 kPa, Gas, x1 = 0.5	15.55 ± 0.05 kg/m3
483.15 K, 1195 kPa, Gas, x1 = 0.8	22.57 ± 0.07 kg/m3
483.15 K, 1378 kPa, Gas, x1 = 0.2	24.98 ± 0.08 kg/m3
483.15 K, 1547 kPa, Gas, x1 = 0.5	30.04 ± 0.09 kg/m3
483.15 K, 1753 kPa, Gas, x1 = 0.8	36.76 ± 0.11 kg/m3
483.15 K, 2012 kPa, Gas, x1 = 0.5	40.56 ± 0.13 kg/m3
483.15 K, 2335 kPa, Gas, x1 = 0.5	51.19 ± 0.16 kg/m3
483.15 K, 2505 kPa, Gas, x1 = 0.8	58.52 ± 0.18 kg/m3
483.15 K, 2571 kPa, Gas, x1 = 0.2	53.11 ± 0.16 kg/m3
483.15 K, 2845 kPa, Gas, x1 = 0.5	67.65 ± 0.21 kg/m3
483.15 K, 2913 kPa, Gas, x1 = 0.8	73.93 ± 0.23 kg/m3
483.15 K, 2963 kPa, Gas, x1 = 0.5	72.74 ± 0.23 kg/m3
483.15 K, 3039 kPa, Gas, x1 = 0.9	83.54 ± 0.45 kg/m3

Liquid
Details	mass density [kg/m3]
473.15 K, x1 = 0.5	418.35 ± 2.5
474.15 K, x1 = 0.8	299.93 ± 1.8
475.25 K, x1 = 0.8	289.08 ± 1.7
475.65 K, x1 = 0.8	273.18 ± 1.6
475.95 K, x1 = 0.8	259.17 ± 1.6
476.15 K, x1 = 0.8	245.91 ± 1.5
476.35 K, x1 = 0.2	510.98 ± 3.1
476.45 K, x1 = 0.5	399.12 ± 2.4
482.15 K, x1 = 0.5	373.68 ± 2.2

From the NIST ThermoML archive (doi:10.1016/j.jct.2016.10.023)
